{
  "source": "patent US11465984B2",
  "about": "“Compound having ERK kinase inhibitory activity and use thereof” (SHANGHAI HAIHE PHARMACEUTICAL CO., LTD., priority 2017, dated 2022)",
  "data": [
    {"target": "ERK2 kinase (Homo sapiens (Human), UniProt P28482)", "sequence (P28482 whole entry)": "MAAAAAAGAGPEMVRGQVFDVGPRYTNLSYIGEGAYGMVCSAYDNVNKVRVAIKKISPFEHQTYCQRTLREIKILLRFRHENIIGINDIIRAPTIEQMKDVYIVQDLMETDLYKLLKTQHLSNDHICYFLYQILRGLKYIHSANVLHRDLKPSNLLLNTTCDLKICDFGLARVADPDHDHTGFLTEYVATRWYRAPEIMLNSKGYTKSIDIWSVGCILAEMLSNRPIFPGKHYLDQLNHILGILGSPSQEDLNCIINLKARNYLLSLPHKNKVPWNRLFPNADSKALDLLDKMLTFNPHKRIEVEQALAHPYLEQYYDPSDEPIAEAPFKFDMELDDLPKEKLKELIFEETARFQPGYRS", "experiment": "In vitro enzyme activity assay, ERK2 kinase (Z'-LYTE)", "assay_type": "biochemical", "conditions": "class symbols; read-out: ERK2 IC50", "procedure": "Half inhibitory activity of the compounds of the invention against ERK2 kinase (IC50 value) was determined in this Example.\n• Enzyme: extracellular signal-regulated kinase ERK2 kinase (PV3595, Invitrogen) • Kit: Z′-LYTE® Protein Kinase Assay Kit-Ser/Thr 3 Peptide (PV3176, Invitrogen) • Kit components: The substrate Z′-LYTE™ Ser/Thr 3 Peptide (PV3200) • The phosphorylation substrate Z′-LYTE™ Ser/Thr 3 Phospho-peptide (PV3215) • 5× kinase buffer: 250 mM HEPES (pH 7.5), 50 mM MgCl2, • 5 mM EGTA, 0.05% BRIJ-35 (PV3189, Invitrogen) • ATP (PV3227, Invitrogen) • Development Reagent A (PV3295, Invitrogen) • Development Buffer (P3127, Invitrogen) • Stop Reagent (P3094, Invitrogen) • Microplate reader: The multil-mode microplate reader PerkinElmer EnVision® • Microplate: black shallow 384-well microplate (6008269, PerkinElmer) (2). Assay Protocol:\nThe substrate Z′-LYTE™ Ser/Thr 3 Peptide, the phosphorylation substrate Z′-LYTE™ Ser/Thr 3 Phospho-peptide, 1× kinase buffer (5× kinase buffer was diluted with ultra pure water by five times), ATP, Development Reagent A, Development Buffer, Stop Reagent were balanced to room temperature for use. The screening concentrations for detecting the effect of the compounds of the invention on the ERK kinase activity were seven 3-fold serial dilutions starting from 1 μM (from 0.2 μM for the positive drug control) using 4% DMSO as co-solvent. 5 μL enzyme system (50 mM HEPES pH 7.5, 1 mM EGTA, 10 mM MgCl2, 0.01% Brij-35, 4 uM substrate, 0.8 ng/μL enzyme), 2.5 μL Compound, 2.5 μL 400 μM ATP were added into 384 well microplate, followed by incubation at room temperature for 60 min in the dark. After the reaction was completed, 5 μl the developing agent (Development Reagent A) diluted with the developing buffer (Development Buffer) was added to all reaction wells, followed by incubation at the room temperature for 60 min in the dark. 5 μL the terminating agent was added to each well to terminate the reaction. The fluorescence was determined using the multil-mode microplate reader PerkinElmer EnVision® (excitation wavelength 400 nm, emission wavelength 460 nm and 528 nm).\nThe inhibition rate of each well was calculated from 100% phosphorylation substrate well and 0% phosphorylation substrate well using the data analysis method below: phosphorylation %=1−{(emission rate×F100%−C100%)/[C0%−C100%+emission rate×(F100%−F0%)]}×100 inhibition %=100×(1−phosphorylation % of the test compound well/phosphorylation % of the 0% inhibition control) • wherein: • emission rate=fluorescence emission of the sample at 445 nm/fluorescence emission of the sample at 520 nm • F100%=the average fluorescence emission of the control well of 100% phosphorylation substrate at 520 nm • F0%=the average fluorescence emission of the control well of 0% phosphorylation substrate at 520 nm • C100%=the average fluorescence emission of the control well of 100% phosphorylation substrate at 445 nm • C0%=the average fluorescence emission of the control well of 0% phosphorylation substrate at 445 nm\nTests were carried out in duplicate. IC50 values were calculated from the inhibition of the kinase by the test compounds at a range of different concentrations.", "units": {"IC50": "nM"}, "values": [
      {"smiles": "Cn1nccc1Nc1nccc(-c2cc(F)c3c(c2)CCN3C(=O)Cc2cnccc2Cl)n1", "note": "[Example P56, 2-(4-chloropyridin-3-yl)-1-(7-fluoro-5-(2-((1-methyl-1H-pyrazol-5-yl)amino)pyrimidin-4-yl)indolin-1-yl)ethan-1-one]", "IC50": "10 to 100"},
      {"smiles": "Cn1nccc1Nc1cc(-c2cc(F)c3c(c2)CCN3C(=O)Cc2cccc(Cl)n2)ccn1", "note": "[Example P29, 2-(6-chloropyridin-2-yl)-1-(7-fluoro-5-(2-((1-methyl-1H-pyrazol-5-yl)amino)pyridin-4-yl)indolin-1-yl)ethan-1-one]", "IC50": "10 to 100"},
      {"smiles": "Cn1nccc1Nc1nccc(-c2cc(F)c3c(c2)CCN3C(=O)Cc2cc(F)ccc2Cl)n1", "note": "[Example P38, 2-(2-chloro-5-fluorophenyl)-1-(7-fluoro-5-(2-((1-methyl-1H-pyrazol-5-yl)amino)pyrimidin-4-yl)indolin-1-yl)ethan-1-one]", "IC50": "10 to 100"},
      {"smiles": "O=C(Cc1cccnc1Cl)N1CCc2cc(-c3ccnc(NC4CCC(O)C4)n3)cc(F)c21", "note": "(stereo not drawn) [Example P4, 2-(2-chloropyridin-3-yl)-1-(7-fluoro-5-(2-((3-hydroxylcyclopentyl)amino)pyrimidin-4-yl)indolin-1-yl)ethan-1-one]", "IC50": "10 to 100"},
      {"smiles": "Cn1nccc1Nc1nccc(-c2cc(F)c3c(c2)CCN3C(=O)Cc2ccccc2C#N)n1", "note": "[Example P30, 2-(2-(7-fluoro-5-(2-((1-methyl-1H-pyrazol-5-yl)amino)pyrimidin-4-yl)indolin-1-yl)-2-oxoethyl)benzonitrile]", "IC50": "10 to 100"},
      {"smiles": "COCC1Cc2cc(-c3ccnc(Nc4ccnn4C)c3)cc(F)c2N1C(=O)Cc1cccnc1Cl", "note": "(stereo not drawn) [Example P58, 2-(2-chloropyridin-3-yl)-1-(7-fluoro-2-(methoxymethyl)-5-(2-((1-methyl-1H-pyrazol-5-yl)amino)pyridin-4-yl)indolin-1-yl)ethan-1-one]", "IC50": "≤ 10"},
      {"smiles": "Cc1cnc(Nc2ccnn2C)nc1-c1cc(F)c2c(c1)CC(C)N2C(=O)Cc1cccnc1Cl", "note": "(stereo not drawn) [Example P48, 2-(2-chloropyridin-3-yl)-1-(7-fluoro-2-methyl-5-(5-methyl-2-((1-methyl-1H-pyrazol-5-yl)amino)pyrimidin-4-yl)indolin-1-yl)ethan-1-one]", "IC50": "≤ 10"}
    ]},
    {"test_system": "patients having melanoma with NRAS mutation and solid tumors with BRAF V600 and non-V600 mutants", "experiment": "not given", "conditions": "600 mg twice a day; cited from earlier work", "values": [
      {"smiles": "CC(C)Nc1cc(-c2c[nH]c(C(=O)N[C@H](CO)c3cccc(Cl)c3)c2)c(Cl)cn1", "note": "[BVD-523, Ulixertinib]", "efficacy in patients": "lasting efficacy", "safety in patients": "acceptable safety"}
    ]}
  ]
}
